Patent US20030224422A1, “Pre-and post therapy gene expression profiling to identify drug targets” (St. Jude Children's Research Hospital, Inc., priority 2002, published 2003)

System: bone marrow leukemic blasts obtained from children with ALL
Assay: Oligonucleotide microarray (Affymetrix HG-U95A) fold-change in gene expression, post-treatment vs diagnosis, in patients in vivo
Set-up: species or system human
Conditions: for number of genes that were down-regulated after single agent / number of genes that were up-regulated (increased) after single agent: changed by >50% in over 70% of patients; for number of genes that changed expression by at least 50%: in over 70% of patients treated
Description: To elucidate genomic determinants of leukemia response to chemotherapy, oligonucleotide microarrays (Affymetrix® HG-U95A GeneChip) were used to analyze expression of approximately 9,600 human genes in bone marrow leukemic blasts obtained from children with ALL, at diagnosis and one day post-treatment with mercaptopurine (1 gm/^2 IV) or methotrexate (MTX) given alone (1 gm/m^2 IV), or mercaptopurine (6-MP) in combination with either low-dose MTX [180 mg/m^2 orally] or high-dose MTX [[…]]). A stratified (immunophenotype, DNA ploidy) randomization was used to assign treatment, and the fold-change in gene expression (post-treatment to diagnosis) was computed for 60 patients. Using linear discriminate analysis with variance (LDAV) genes that most discriminated among treatments were selected based on expression changes (fold-change from diagnosis to post-treatment) or based on post-treatment expression levels alone. […] Leave-one-out cross-validation using support-vector-machine (SVM), based on the 120 most discriminating genes, correctly classified 60 out of 60 patients (100%) based on fold-change versus 58 out of 60 (96.7%) using only post-treatment expression profiles. The smallest number of genes for discrimination among treatments was 120 using fold-change, which included genes involved in cellular processes such as apoptosis, cell cycle control and stress response. Together, these in vivo data reveal unique, treatment-specific changes in gene expression in primary leukemia cells, establishing that changes in expression differ according to the specific medication, dosage and combination given. These findings provide new insights to cancer cell responses to chemotherapy and can be used to illuminate mechanisms of leukemia resistance and identify novel targets to augment existing treatment modalities.
Primary leukemia cells. This study included 60 patients with ALL enrolled on St. Jude Children's Research Hospital Total Therapy Studies XIIIB and XV. Bone marrow samples were obtained at diagnosis (pre-treatment) and one day post-treatment with mercaptopurine (6-MP) or methotrexate (MTX) given alone, or mercaptopurine in combination with either low-dose MTX (LDMTX/6-MP) or high-dose MTX (HDMTX/6-MP). A stratified (immunophenotype, DNA ploidy) randomization was used to assign treatment. Total RNA was extracted from cryopreserved mononuclear cell suspensions with TriReagent (MRC, Cincinnati, Ohio).
Mircoarray analysis. High quality RNA was hybridized to Affymetrix HG-U95A GeneChipe (12,600 probe sets, ˜9,600 human genes) according to the manufacturers protocol (Affymetrix, Santa Clara, Calif.). Scaled gene expression values for pre-treatment, post-treatment and fold-change (post-treatment vs. pre-treatment ratio) were calculated using Affymetrix Microarray Suite® (MAS) 5.0.
Gene expression data analysis. Analysis was done on fold-change and on post-treatment expression. The data were log-transformed and probe sets were filtered out if “absent” in all 120 arrays or if “no change” in all 60 fold-change ratios. Principal component analysis (PCA) and 2D-hierarchical clustering was performed using GeneMath 1.5 (AppliedMaths, Belgium). We applied supervised methods to find the most discriminating genes, including Linear Discriminant Analysis with Variance (LDAV) (GeneMaths) and ANOVA. Probe sets were ranked according to their discriminating power. To establish that these genes could classify treatments and to find significant genes, leave-one-out cross-validation was performed by support vector machine (SVM) with the top ranked probe sets. […] The p-value is defined as the probability of observing a misclassification rate less or equal to that in the experimental data. 250 permutations were performed. To distinguish one treatment from the other treatments, distinction calculation (Spotfire 6.3, Somerville, Mass.) was performed for each probe set. Permutations (n=1000) were performed to obtain the p-values. […]

CN(Cc1cnc2nc(N)nc(N)c2n1)c1ccc(C(=O)N[C@@H](CCC(=O)O)C(=O)O)cc1 [HDMTX, Methotrexate]
difference in gene expression between infusion for 24 h and infusion for 4 h (HDMTX 24 h vs 4 h infusion, data pooled): No difference
number of genes that were down-regulated after single agent: 59 genes
number of genes that were up-regulated (increased) after single agent: 38 genes
number of genes that changed expression by at least 50%: 97 genes

S=c1nc[nH]c2nc[nH]c12 [MP, Mercaptopurine]
number of genes that were down-regulated after single agent: 40 genes
number of genes that were up-regulated (increased) after single agent: 158 genes
number of genes that changed expression by at least 50%: 197 genes
